Measured values published in ChEMBL document CHEMBL1150738, “Plant antitumor agents, 27. Isolation, structure, and structure activity relationships of alkaloids from Fagara macrophylla” (1987).
Calls of active or inactive are those of the source. No cut-off for these calls is given here.

What was measured:
P388 = experiment: In vivo antitumor activity against mouse P388 cells at 30 to 50 mg/kg, ip relative to control; type: functional; settings: for T/C: dose mg/kg 30-50, route intraperitoneal
B16 = experiment: Cytotoxicity against mouse B16 cells; type: functional, cell-based

Row | Compound | T/C (P388) | Activity (B16) | Activity (P388)
1 | COc1cc2c[n+](C)c3c4cc5c(cc4ccc3c2cc1OC)OCO5.[Cl-] [NITIDINE CHLORIDE] | 240% | inactive | 
2 | COc1cc2c(cc1OC)-c1ccc3cc4c(cc3c1N(C)C2)OCO4 |  |  | inactive
3 | COc1cc2cnc3c4cc5c(cc4ccc3c2cc1OC)OCO5 |  |  | inactive
4 | COc1cc2c(=O)n(C)c3c4cc5c(cc4ccc3c2cc1OC)OCO5 |  |  | inactive
5 | COc1cc2c(cc1OC)C(OC)N(C)c1c-2ccc2cc3c(cc12)OCO3 (stereo unspecified) | 240% |  | 
